Experimental data as given in PMC6715688, “Mycobacterial dynamin-like protein IniA mediates membrane fission” (Nature Communications, 2019).

What was measured:
IniA [1] = target: IniA (Mycolicibacterium smegmatis, UniProt I7FE16); test: isothermal titration calorimetry; assay type: binding
IniA [2] = target: IniA (Mycolicibacterium smegmatis, UniProt I7FE16, K73A); test: isothermal titration calorimetry; assay type: binding
Excerpt: isothermal titration calorimetry on IniA | showing only a twofold reduction in affinity for GMPPNP or GTP | the mutant IniA largely maintained interactions with GDP

Chain of IniA (Mycolicibacterium smegmatis, UniProt I7FE16, K73A) (I7FE16 entry or part of it K73A): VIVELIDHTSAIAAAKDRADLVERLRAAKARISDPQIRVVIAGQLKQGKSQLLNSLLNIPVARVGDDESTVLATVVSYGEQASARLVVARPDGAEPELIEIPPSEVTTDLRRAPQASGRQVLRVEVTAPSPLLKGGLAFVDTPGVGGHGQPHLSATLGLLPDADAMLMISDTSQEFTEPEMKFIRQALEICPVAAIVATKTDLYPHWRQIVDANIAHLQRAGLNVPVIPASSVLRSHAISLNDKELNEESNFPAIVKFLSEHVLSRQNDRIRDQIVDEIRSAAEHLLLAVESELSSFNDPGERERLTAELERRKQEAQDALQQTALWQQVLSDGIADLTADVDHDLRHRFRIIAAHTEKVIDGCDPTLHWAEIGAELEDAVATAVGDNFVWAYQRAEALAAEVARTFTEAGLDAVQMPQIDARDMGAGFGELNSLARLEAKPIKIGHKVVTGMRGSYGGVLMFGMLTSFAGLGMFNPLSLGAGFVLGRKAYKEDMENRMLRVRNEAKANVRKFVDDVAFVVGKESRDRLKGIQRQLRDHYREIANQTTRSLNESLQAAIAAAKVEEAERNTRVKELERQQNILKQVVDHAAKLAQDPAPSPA
Chain of IniA (Mycolicibacterium smegmatis, UniProt I7FE16) (I7FE16 entry or part of it): as the sequence (I7FE16 entry or part of it K73A) above

SMILES	Kd (IniA [1])	Kd (IniA [2])
Nc1nc2c(ncn2[C@@H]2O[C@H](COP(=O)(O)OP(=O)(O)O)[C@@H](O)[C@H]2O)c(=O)[nH]1 [GDP]	0.75 µM	~1.06 µM
Nc1nc2c(ncn2[C@@H]2O[C@H](COP(=O)(O)OP(=O)(O)NP(=O)(O)O)[C@@H](O)[C@H]2O)c(=O)[nH]1 [GMPPNP]	9.01 µM	~23.2 µM
Nc1nc2c(ncn2[C@@H]2O[C@H](COP(=O)(O)OP(=O)(O)OP(=O)(O)O)[C@@H](O)[C@H]2O)c(=O)[nH]1 [GTP]	0.74 µM	~1.43 µM
